Reference: US20210386829A1, “COMPOSITIONS AND METHODS FOR MODULATING CGRP SIGNALING TO REGULATE INNATE LYMPHOID CELL INFLAMMATORY RESPONSES” (The Broad Institute, Inc., priority 2018, published 2021)

Tested on: IL-33-induced airway inflammation in RAG2 KO mice
Assay: IL-33-induced airway inflammation in RAG2 KO mice, intranasal co-administration of CGRP
Type: in vivo, mouse
Conditions: IL-33+CGRP vs IL-33 alone
Excerpt: Animals. All experiments involving mice were approved by the Institutional Animal Care and Use Committee (IACUC) at Brigham and Women's Hospital. Mice were maintained in the animal facility at Brigham and Women's Hospital under specific pathogen-free conditions with food and water ad libitum and a 12-hour dark/light cycle. Mice were age- and sex-matched for experiments and were randomly assigned to experimental groups. C57BL/6J mice and RAG2 KO mice were purchased from the Jackson Laboratory. CGRP-GFP-hDTR mice were kindly provided by I. Chiu (Harvard Medical School, Boston).
Cytokine-induced airway inflammation. Mice received nasally 500 ng IL-25, 500 ng IL-33, 20 ug NMU or 6.65 ug CGRP diluted in DPBS for three consecutive days. For nasal administration, mice were lightly anesthetized with Isoflurane (Cat #07-893-1389; Patterson Veterinary). For induction of inflammatory ILC2s, mice received intraperitoneally 500 ng IL-25 for three consecutive days. One day after the last treatment, mice were euthanized and perfused with 8 ml cold PBS via the right heart ventricle. After exposure of the trachea, a small incision was made at the top of the trachea and a curved gavage needle was inserted. Lungs were washed with 1.5 ml cold PBS via the needle and the retrieved bronchoalveolar lavage fluid was centrifuged at 1300 rpm for 5 min at 4 C. After centrifugation, the supernatant was frozen at −20° C. and the cell pellet was resuspended in 250 ul complete medium and stored on ice until flow cytometric analysis. The post-caval lung lobe was transferred into 10% buffered formalin and stored at room temperature until paraffin embedding for histological analysis. The other lung lobes were dissociated using the lung dissociation kit (Cat #130-095-927; Miltenyi Biotec) and automated tissue dissociator (gentleMACS; Miltenyi Biotec) as described above with the adjustment that after running program lung_02, the single cell suspension was centrifuged at 1300 rpm for 5 min at 4° C. and 1 ml of the supernatant was frozen at −20° C. Single-cell suspension was resuspended in complete cell culture medium and stored on ice until further processing.
For cell counts, lung cells were transferred into FACS tubes and stained with 7AAD. Precision Count Beads (Cat #424902; BioLegend) were added according to manufacturer's instructions. Cells and beads were acquired on a BD LSRFortessa (BD Biosciences) and cell numbers were calculated based on number of acquired live (7AAD−) cells and number of acquired beads.
For flow cytometric analysis, lung cells were transferred into a 96 well V-bottom plate and stained with surface antibodies for 20 min at 4° C. in the dark. Cells were washed twice with DPBS containing 2% fetal bovine serum and transferred into 1.2 ml tubes for analysis by flow cytometry. For intracellular cytokine staining, cells were incubated in complete cell culture medium with 50 ng/ml phorbol 12-myristate 13-acetate (Sigma-Aldrich), 1 uM ionomycin (Sigma-Aldrich) and GolgiStop (Cat #554724; BD Biosciences) in a humidified incubator at 37° C. and 10% CO2. After 5 hours, cells were transferred into 96 well V-bottom plate, stained with Fixable Viability Dye eFluor 506 (Cat #65-0866-14; Thermo Fisher) and surface antibodies for 20 min at 4° C. in the dark and washed twice with DPBS containing 2% fetal bovine serum. Then, cells were incubated with BD Cytofix/Cytoperm Buffer (Cat #51-2090KZ; BD Biosciences) for 20 min, followed by a wash with BD Perm/Wash Buffer (Cat #51-2091KZ; BD Biosciences). Subsequently, cells were incubated with antibodies targeting intracellular proteins diluted in BD Perm/Wash Buffer for 20 min and after two wash steps, transferred into 1.2 ml tubes for analysis by flow cytometry. […]

CGRP: neuropeptide calcitonin gene-related peptide (encoded by Calca), ligand of the Ramp1/Calcrl receptor; given at 100 nM in vitro, 6.65 ug nasally
Il5 and Il13 transcripts in lung tissue: significantly reduced
concentration of IL-5 and IL-13 protein in lung homogenates and BALF: significantly reduced
eosinophil numbers in lung tissue and BALF: significantly reduced
frequency of IL-5-positive ILCs: no difference
frequency of IL-13-positive ILC2s: significantly lower
total numbers of lung ILCs: marked reduction
frequency of lung ILCs (intranasal, three consecutive days): non-significant trend towards a reduced frequency
